# Experimental data: patent US9447038B2 (SANOFI, priority 2012, dated 2016)
# Structures can show the parent of a compound that is named as a salt.
# Molecular target: human CXCR3-A receptor (Homo sapiens (Human), UniProt P49682)
# Test: 125I-CXCL10 competition radioligand binding assay;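 further: One-hour incubation of membranes with tracer, bound radioligand separated by glass fibre filtration, IC50 derived from four-parameter nonlinear fit of competition curves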
# Conditions: displacement of 125I-CXCL10 from membranes of CHO cells expressing human recombinant CXCR3-A
# human CXCR3-A receptor, sequence (P49682 whole entry): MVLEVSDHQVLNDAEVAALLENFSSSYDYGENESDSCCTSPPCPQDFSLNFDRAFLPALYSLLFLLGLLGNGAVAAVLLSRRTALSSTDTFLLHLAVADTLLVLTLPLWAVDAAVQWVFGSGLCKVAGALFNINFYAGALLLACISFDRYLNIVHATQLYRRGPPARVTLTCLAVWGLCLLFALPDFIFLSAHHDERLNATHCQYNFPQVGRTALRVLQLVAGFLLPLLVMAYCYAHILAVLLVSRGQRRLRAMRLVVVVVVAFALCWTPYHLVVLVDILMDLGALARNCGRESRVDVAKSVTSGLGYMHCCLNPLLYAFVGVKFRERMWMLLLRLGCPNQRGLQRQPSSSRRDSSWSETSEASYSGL
row,SMILES,IC50 [nM]
1,"CCCN(Cc1ccc(OCCN2C(=O)CCC2=O)c(C)c1)C(c1ccc(Cl)cc1)C(C)C(=O)O (stereo not shown) [Example 194, 3-(4-Chloro-phenyl)-3-({4-[2-(2,5-dioxo-pyrrolidin-1-yl)-ethoxy]-3-methyl-benzyl}-propyl-amino)-2-methyl-propionic acid]",272
2,"Cc1cc(CN(CC2CCCC2)[C@@H](CC(=O)O)c2ccc(Cl)cc2)ccc1OCCN1C(=O)CN(C)C1=O [Example 199, (S)-3-(4-Chloro-phenyl)-3-(cyclopentylmethyl-{3-methyl-4-[2-(3-methyl-2,5-dioxo-imidazolidin-1-yl)-ethoxy]-benzyl}-amino)-propionic acid]",175
3,"Cc1cc(CN(CC2CCCCC2)[C@@H](CC(=O)O)c2ccc(Cl)c(F)c2)ccc1OCCN1C(=O)CN(C)C1=O [Example 34, (S)-3-(4-Chloro-3-fluoro-phenyl)-3-(cyclohexylmethyl-{3-methyl-4-[2-(3-methyl-2,5-dioxo-imidazolidin-1-yl)-ethoxy]-benzyl}-amino)-propionic acid]",83
4,CCCCN(Cc1ccc(OCCN2C(=O)CCC2=O)c(OC)c1)C(C(=O)O)c1ccc(Cl)cc1 (stereo not shown) [Example 184],336
5,"O=C(O)CC(c1ccc(Cl)cc1)N(Cc1ccc(OCCN2C(=O)CCC2=O)c(F)c1)CC1CCCCC1 (stereo not shown) [Example 57, 3-(4-Chloro-phenyl)-3-(cyclohexylmethyl-{4-[2-(2,5-dioxo-pyrrolidin-1-yl)-ethoxy]-3-fluoro-benzyl}-amino)-propionic acid]",212
6,"COc1cc(CN(CC2CCCC2)C(CC(=O)O)c2ccc(C)cc2)ccc1OCCN1C(=O)CCC1=O (stereo not shown) [Example 179, 3-(Cyclopentylmethyl-{4-[2-(2,5-dioxo-pyrrolidin-1-yl)-ethoxy]-3-methoxy-benzyl}-amino)-3-p-tolyl-propionic acid]",91
7,"CCCN(Cc1ccc(OCCN2C(=O)CCC2=O)c(Cl)c1)C(CC(=O)O)c1ccc(Cl)c(Cl)c1 (stereo not shown) [Example 107, 3-({3-Chloro-4-[2-(2,5-dioxo-pyrrolidin-1-yl)-ethoxy]-benzyl}-propyl-amino)-3-(3,4-dichloro-phenyl)-propionic acid]",570
8,"COc1cc(CN(CC2CC2)C(CC(=O)O)c2ccc(Cl)cc2Cl)ccc1OCCn1c(=O)ccn(C)c1=O (stereo not shown) [Example 156, 3-(Cyclopropylmethyl-{3-methoxy-4-[2-(3-methyl-2,6-dioxo-3,6-dihydro-2H-pyrimidin-1-yl)-ethoxy]-benzyl}-amino)-3-(2,4-dichloro-phenyl)-propionic acid]",120
9,"Cc1cc(CN(CC2CC2)C(CC(=O)O)c2ccc(Cl)c(F)c2)ccc1OCCN1C(=O)CCC1=O (stereo not shown) [Example 74, 3-(4-Chloro-3-fluoro-phenyl)-3-(cyclopropylmethyl-{4-[2-(2,5-dioxo-pyrrolidin-1-yl)-ethoxy]-3-methyl-benzyl}-amino)-propionic acid]",34
10,"CCCN(Cc1ccc(OCCN2C(=O)CCC2=O)c(OC)c1)C(CC(=O)O)c1ccc(Cl)c(F)c1 (stereo not shown) [Example 41, 3-(4-Chloro-3-fluoro-phenyl)-3-({4-[2-(2,5-dioxo-pyrrolidin-1-yl)-ethoxy]-3-methoxy-benzyl}-propyl-amino)-propionic acid]",107
11,"COc1cc(CN(CC2CCCCC2)C(CC(=O)O)c2ccc3c(c2)CCO3)ccc1OCCN1C(=O)CCC1=O (stereo not shown) [Example 148, 3-(Cyclohexylmethyl-{4-[2-(2,5-dioxo-pyrrolidin-1-yl)-ethoxy]-3-methoxy-benzyl}-amino)-3-(2,3-dihydro-benzofuran-5-yl)-propionic acid]",28
12,"CCc1cc(CN(CC2CC2)C(CC(=O)O)c2ccc(Cl)cc2)ccc1OCCN1C(=O)CCC1=O (stereo not shown) [Example 84, 3-(4-Chloro-phenyl)-3-(cyclopropylmethyl-{4-[2-(2,5-dioxo-pyrrolidin-1-yl)-ethoxy]-3-ethyl-benzyl}-amino)-propionic acid]",45
13,"CCCN(Cc1ccc(OCCN2C(=O)CCC2=O)c(OC)c1)C(CC(=O)O)c1ccc(Cl)c(Cl)c1 (stereo not shown) [Example 46, 3-(3,4-Dichloro-phenyl)-3-({4-[2-(2,5-dioxo-pyrrolidin-1-yl)-ethoxy]-3-methoxy-benzyl}-propyl-amino)-propionic acid]",118
14,"CCN(Cc1ccc(OCCN2C(=O)CCC2=O)c(OC)c1)C(C(=O)O)c1ccc(Cl)cc1 (stereo not shown) [Example 182, (4-Chloro-phenyl)-({4-[2-(2,5-dioxo-pyrrolidin-1-yl)-ethoxy]-3-methoxy-benzyl}-ethyl-amino)-acetic acid]",3900
15,"CCCCN(Cc1ccc(OCCN2C(=O)CCC2=O)c(F)c1)C(CC(=O)O)c1ccc(Cl)cc1 (stereo not shown) [Example 54, 3-(Butyl-{4-[2-(2,5-dioxo-pyrrolidin-1-yl)-ethoxy]-3-fluoro-benzyl}-amino)-3-(4-chloro-phenyl)-propionic acid]",306
16,"CCc1cc(CN(CC(C)C)C(CC(=O)O)c2ccc(Cl)cc2)ccc1OCCN1C(=O)CCC1=O (stereo not shown) [Example 86, 3-(4-Chloro-phenyl)-3-({4-[2-(2,5-dioxo-pyrrolidin-1-yl)-ethoxy]-3-ethyl-benzyl}-isobutyl-amino)-propionic acid]",12

row,SMILES,IC50 [nM]
1,"CCc1cc(CN(CC2CCC2)[C@@H](CC(=O)O)c2ccc(Cl)cc2)ccc1OCCN1C(=O)CCC1=O [Example 88, (S)-3-(4-Chloro-phenyl)-3-(cyclobutylmethyl-{4-[2-(2,5-dioxo-pyrrolidin-1-yl)-ethoxy]-3-ethyl-benzyl}-amino)-propionic acid]",70
2,"CCc1cc(CN(CC2CCCCC2)C(CC(=O)O)c2ccc(Cl)cc2)ccc1OCCN1C(=O)CCC1=O (stereo not shown) [Example 89, 3-(4-Chloro-phenyl)-3-(cyclohexylmethyl-{4-[2-(2,5-dioxo-pyrrolidin-1-yl)-ethoxy]-3-ethyl-benzyl}-amino)-propionic acid]",51
3,"Cc1cc(CN(CC2CCCCC2)C(CC(=O)O)c2ccc(Cl)c(F)c2)ccc1OCCN1C(=O)CCC1=O (stereo not shown) [Example 78, 3-(4-Chloro-3-fluoro-phenyl)-3-(cyclohexylmethyl-{4-[2-(2,5-dioxo-pyrrolidin-1-yl)-ethoxy]-3-methyl-benzyl}-amino)-propionic acid]",72
4,"CCCCN(Cc1ccc(OCCN2C(=O)CCC2=O)c(C)c1)C(CC(=O)O)c1ccc(Cl)c(Cl)c1 (stereo not shown) [Example 81, 3-(Butyl-{4-[2-(2,5-dioxo-pyrrolidin-1-yl)-ethoxy]-3-methyl-benzyl}-amino)-3-(3,4-dichloro-phenyl)-propionic acid]",100
5,"COc1cc(CN(CC2CCCC2)C(CC(=O)O)c2ccc(C(F)(F)F)cc2)ccc1OCCN1C(=O)CCC1=O (stereo not shown) [Example 180, 3-(Cyclopentylmethyl-{4-[2-(2,5-dioxo-pyrrolidin-1-yl)-ethoxy]-3-methoxy-benzyl}-amino)-3-(4-trifluoromethyl-phenyl)-propionic acid]",198
6,"CCCN(Cc1ccc(OCCN2C(=O)CCC2=O)c(CC)c1)C(c1ccc(Cl)cc1)C1(C(=O)O)CC1 (stereo not shown) [Example 196, 1-[(4-Chloro-phenyl)-({4-[2-(2,5-dioxo-pyrrolidin-1-yl)-ethoxy]-3-ethyl-benzyl}-propyl-amino)-methyl]-cyclopropanecarboxylic acid]",630
7,"CCCN(Cc1ccc(OCCN2C(=O)CCC2=O)c(CC)c1)C(CC(=O)O)c1ccc(Cl)c(F)c1 (stereo not shown) [Example 91, 3-(4-Chloro-3-fluoro-phenyl)-3-({4-[2-(2,5-dioxo-pyrrolidin-1-yl)-ethoxy]-3-ethyl-benzyl}-propyl-amino)-propionic acid]",56
8,"Cc1cc(CN(CC(C)C)C(CC(=O)O)c2ccc(Cl)cc2)ccc1CCCN1C(=O)CCC1=O (stereo not shown) [Example 137, 3-(4-Chloro-phenyl)-3-({4-[3-(2,5-dioxo-pyrrolidin-1-yl)-propyl]-3-methyl-benzyl}-isobutyl-amino)-propionic acid]",240
9,"CCCCN(Cc1ccc(OCCN2C(=O)CCC2=O)c(CC)c1)C(CC(=O)O)c1ccc(Cl)c(Cl)c1 (stereo not shown) [Example 99, 3-(Butyl-{4-[2-(2,5-dioxo-pyrrolidin-1-yl)-ethoxy]-3-ethyl-benzyl}-amino)-3-(3,4-dichloro-phenyl)-propionic acid]",120
10,"CCCCN(Cc1ccc(OCCN2C(=O)CCC2=O)c(OC)c1)C(CC(=O)O)c1ccc(Cl)c(F)c1 (stereo not shown) [Example 43, 3-(Butyl-{4-[2-(2,5-dioxo-pyrrolidin-1-yl)-ethoxy]-3-methoxy-benzyl}-amino)-3-(4-chloro-3-fluoro-phenyl)-propionic acid]",23
11,"COc1cc(CN(CC2CCCC2)C(CC(=O)O)c2ccc3c(c2)CCO3)ccc1OCCN1C(=O)CCC1=O (stereo not shown) [Example 146, 3-(Cyclopentylmethyl-{4-[2-(2,5-dioxo-pyrrolidin-1-yl)-ethoxy]-3-methoxy-benzyl}-amino)-3-(2,3-dihydro-benzofuran-5-yl)-propionic acid]",56
12,"CCCCN(Cc1ccc(OCCN2C(=O)CCC2=O)c(CC)c1)C(CC(=O)O)c1ccc(Cl)c(F)c1 (stereo not shown) [Example 93, 3-(Butyl-{4-[2-(2,5-dioxo-pyrrolidin-1-yl)-ethoxy]-3-ethyl-benzyl}-amino)-3-(4-chloro-3-fluoro-phenyl)-propionic acid]",79
13,"COc1cc(CN(CC(C)C)C(CC(=O)O)c2ccc(Cl)cc2)ccc1CCCN1C(=O)CCC1=O (stereo not shown) [Example 134, 3-(4-Chloro-phenyl)-3-({4-[3-(2,5-dioxo-pyrrolidin-1-yl)-propyl]-3-methoxy-benzyl}-isobutyl-amino)-propionic acid]",296
14,"Cc1cc(CN(CC2CCCC2)[C@@H](CC(=O)O)c2ccc(Cl)c(Cl)c2)ccc1OCCN1C(=O)CN(C)C1=O [Example 200, (S)-3-(Cyclopentylmethyl-{3-methyl-4-[2-(3-methyl-2,5-dioxo-imidazolidin-1-yl)-ethoxy]-benzyl}-amino)-3-(3,4-dichloro-phenyl)-propionic acid; hydrochloride]",234
15,"CCN(Cc1ccc(OCCn2c(=O)ccn(C)c2=O)c(OC)c1)C(CC(=O)O)c1ccc(Cl)c(Cl)c1 (stereo not shown) [Example 126, 3-(3,4-Dichloro-phenyl)-3-(ethyl-{3-methoxy-4-[2-(3-methyl-2,6-dioxo-3,6-dihydro-2H-pyrimidin-1-yl)-ethoxy]-benzyl}-amino)-propionic acid]",310
